Assay [1] addresses T1, full-length proMMP9(1-707) activation by catalytic MMP3 (Homo sapiens, UniProt P14780, R574P).
T1 construct: made in house; host or cells: proMMP9: HEK293 (secreted); MMP3: E. coli
In words: proMMP9/MMP3 P126 Activation Assay. The assay is classed as biochemical. Here is the method:
proMMP9/MMP3 P126 Activation Assay
The reaction volume was 50 μL. […] Reactivity of residual MMP3 towards P-126 substrate was minimal under these conditions.

Assay [2] addresses T2, proMMP9(67-444;ΔFnII) (SEQ ID NO:5) (Homo sapiens, UniProt P14780, DEL216-390).
T2 construct: start methionine (N); made in house; host or cells: E. coli BL21(DE3) RIL
T2 sequence (P14780 with tags, fused parts or gaps DEL216-390): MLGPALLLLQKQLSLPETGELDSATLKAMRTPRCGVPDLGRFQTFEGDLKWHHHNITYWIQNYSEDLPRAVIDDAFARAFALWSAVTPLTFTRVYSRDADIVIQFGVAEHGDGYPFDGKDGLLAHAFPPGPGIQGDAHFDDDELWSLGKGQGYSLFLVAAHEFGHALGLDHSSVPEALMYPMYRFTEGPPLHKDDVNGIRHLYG
Put plainly: ThermoFluor binding assay with proMMP9(67-444;ΔFnII). Here is the method: (§1) The ThermoFluor® (TF) assay is a 384-well plate-based binding assay that measures thermal stability of proteins (Biomol Screen 2001, 6, 429-40; Biochemistry 2005, 44, 5258-66). The experiments were carried out using instruments available from Johnson & Johnson Pharmaceutical Research & Development, LLC. TF dye used in all experiments was […] (1,8-ANS) (Invitrogen: A-47).
(§2) Compounds were arranged in a pre-dispensed plate (Greiner Bio-one: 781280), wherein compounds were serially diluted in 100% DMSO across 11 columns within a series. Columns 12 and 24 were used as DMSO reference and contained no compound. For multiple compound concentration-response experiments, the compound aliquots (50 nL) were robotically predispensed directly into black 384-well polypropylene PCR microplates (Abgene: TF-0384/k) using a Cartesian Hummingbird liquid handler (DigiLab, Holliston, Mass.). Following compound dispense, protein and dye solutions were added to achieve the final assay volume of 3 μL. The assay solutions were overlayed with 1 μL of silicone oil (Fluka, type DC 200: 85411) to prevent evaporation.
(§3) Assay plates were robotically loaded onto a thermostatically controlled PCR-type thermal block and then heated from 40 to 90° C. at a ramp-rate of 1° C./min for all experiments. Fluorescence was measured by continuous illumination with UV light (Hamamatsu LC6) supplied via fiber optics and filtered through a band-pass filter (380-400 nm; >60D cutoff). Fluorescence emission of the entire 384-well plate was detected by measuring light intensity using a CCD camera (Sensys, Roper Scientific) filtered to detect 500±25 nm, resulting in simultaneous and independent readings of all 384 wells. A single image with 20-sec exposure time was collected at each temperature, and the sum of the pixel intensity in a given area of the assay plate was recorded vs temperature and fit to standard equations to yield the Tm (J Biomol Screen 2001, 6, 429-40).
(§4) Thermodynamic parameters necessary for fitting compound binding for each proMMP were estimated by differential scanning calorimetry (DSC) and from ThermoFluor® data. The heat capacity of unfolding for each protein was estimated from the molecular weight and from ThermoFluor® dosing data.
ThermoFluor® with proMMP9(67-444;ΔFnM (SEQ ID NO:5)
The protein sample preparations had to include a desalting buffer exchange step via a PD-10 gravity column (GE Healthcare). The desalting buffer exchange was performed prior to diluting the protein to the final assay concentration of 3.5 μM proMMP9(67-444;ΔFnII) (SEQ ID NO:5). The concentration of proMMP9(67-444;ΔFnII) (SEQ ID NO:5) was determined spectrophotometrically based on a calculated extinction coefficient of ε280=33900 M^−1 cm^−1, a calculated molecular weight of 22.6 kDa, and calculated pI of 5.20. ThermoFluor® reference conditions were defined as follows: 80 μg/mL (3.5 μM) proMMP9(67-444;ΔFnII) (SEQ ID NO:5), 50 μM 1,8-ANS, pH 7.0 Buffer (50 mM HEPES pH 7.0, 100 mM NaCl, 0.001% Tween-20, 2.5 mM MgCl2, 300 μM CaCl2). The thermodynamic parameters for proMMP9(67-444;ΔFnII) (SEQ ID NO:5) are as follows: Tm (° C.)=63 (+/−0.1), ΔUH(Tm)(cal mol^−1)=105000(+/−5000), ΔUS(Tm) (cal mol^−1 K^−1)=450, ΔUCp (cal mol^−1 K^−1)=2000.

Assay [3] addresses T3, proMMP9(20-445;ΔFnII) (SEQ ID NO:6) (Homo sapiens, UniProt P14780, DEL216-390).
T3 construct: start methionine (N); made in house; host or cells: E. coli BL21(DE3) RIL
T3 sequence (P14780 with tags, fused parts or gaps DEL216-390): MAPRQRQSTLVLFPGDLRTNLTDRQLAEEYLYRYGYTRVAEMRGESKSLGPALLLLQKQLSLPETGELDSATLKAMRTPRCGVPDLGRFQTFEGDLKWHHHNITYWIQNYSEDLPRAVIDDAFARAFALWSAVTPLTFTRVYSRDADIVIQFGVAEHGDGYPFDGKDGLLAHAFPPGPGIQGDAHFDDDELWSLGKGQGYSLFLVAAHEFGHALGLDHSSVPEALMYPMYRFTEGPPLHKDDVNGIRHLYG
Put plainly: ThermoFluor binding assay with proMMP9(20-445;ΔFnII). Here is the method: as §1, §2, §3, §4
ThermoFluor® with proMMP9(20-445; ΔFnII (SEQ ID NO:6)
The protein sample preparations included a desalting buffer exchange step via a PD-10 gravity column (GE Healthcare). The desalting buffer exchange was performed prior to diluting the protein to the final assay concentration of 2.8 μM proMMP9(20-445;ΔFnII) (SEQ ID NO:6). The concentration of proMMP9(20-445;ΔFnII) (SEQ ID NO:6) was determined spectrophotometrically based on a calculated extinction coefficient of ε280=39880 M^−1 cm^−1, a calculated molecular weight of 28.2 kDa, and calculated pI of 5.5. ThermoFluor® reference conditions were define as follows: 80 μg/mL (2.8 μM) proMMP9(20-445;ΔFnII) (SEQ ID NO:6), 50 μM 1,8-ANS, pH 7.0 Buffer (50 mM HEPES pH 7.0, 100 mM NaCl, 0.001% Tween-20, 2.5 mM MgCl2, 300 μM CaCl2). The thermodynamic parameters for proMMP9(20-445;ΔFnII) (SEQ ID NO:6) are as follows: Tm (° C.)=72 (+/−0.1), ΔUH(Tm) (cal mol^−1)=160000(+/−5000), ΔUSTm (cal mol^−1 K^−1)=434, ΔUCp (cal mol^−1 K^−1)=2400.

Counter-ions that a name gives are not always drawn.

T1 sequence (P14780 20-707 R574P): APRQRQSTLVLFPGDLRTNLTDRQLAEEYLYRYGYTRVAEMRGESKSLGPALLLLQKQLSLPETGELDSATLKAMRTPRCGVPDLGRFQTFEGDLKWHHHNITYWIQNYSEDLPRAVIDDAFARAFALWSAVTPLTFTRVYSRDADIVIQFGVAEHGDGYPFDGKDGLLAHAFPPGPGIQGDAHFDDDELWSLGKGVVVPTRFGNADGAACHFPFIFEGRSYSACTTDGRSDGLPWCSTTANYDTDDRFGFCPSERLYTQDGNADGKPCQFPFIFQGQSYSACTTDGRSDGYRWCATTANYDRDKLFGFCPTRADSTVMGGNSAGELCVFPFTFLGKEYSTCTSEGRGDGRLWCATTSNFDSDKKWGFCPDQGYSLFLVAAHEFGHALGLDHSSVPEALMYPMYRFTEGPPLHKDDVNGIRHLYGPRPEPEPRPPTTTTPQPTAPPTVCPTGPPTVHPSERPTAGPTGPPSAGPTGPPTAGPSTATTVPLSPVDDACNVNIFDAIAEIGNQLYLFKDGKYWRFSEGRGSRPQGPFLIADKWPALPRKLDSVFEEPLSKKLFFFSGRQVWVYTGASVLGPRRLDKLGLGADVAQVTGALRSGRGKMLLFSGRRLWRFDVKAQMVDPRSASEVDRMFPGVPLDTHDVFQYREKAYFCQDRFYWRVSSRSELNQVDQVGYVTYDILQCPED

`COc1ccc(Nc2nc3c(ccc4c3ncn4C)s2)c(OC)c1` [Example 78, (2,4-Dimethoxy-phenyl)-(6-methyl-6H-imidazo[4′,5′:3,4]-benzo[2,1-d]thiazol-2-yl)-amine.HCl] came in with a 50% inhibitory concentration (IC50) in assay [1] of 4000 nM. The Kd in assay [2] worked out at 3400 nM; in assay [3] it was 10000 nM.
As for `COc1ccc(N)cc1Nc1nc2c(ccc3c2ncn3C)s1` [Example 79, 4-Methoxy-N^3-(6-methyl-6H-imidazo[4′,5′:3,4]-benzo[2,1-d]thiazol-2-yl)-benzene-1,3-diamine.HCl], the midpoint of inhibition in assay [1], the IC50, lay at 390 nM. Besides, the Kd in assay [2] was 930 nM; in assay [3], 3200 nM.
Turning to `COc1ccc(S(=O)(=O)N2CCCCC2)cc1Nc1nc2c(ccc3c2ncn3C)s1` [Example 80, [2-Methoxy-5-(piperidine-1-sulfonyl)-phenyl]-(6-methyl-6H-imidazo[4′,5′:3,4]-benzo[2,1-d]thiazol-2-yl)-amine.HCl], in assay [1], the IC50 was 740 nM. Besides, the Kd in assay [2] worked out at 960 nM; in assay [3], 2300 nM.
For `COc1ccc(S(=O)(=O)N2CCOCC2)cc1Nc1nc2c(ccc3c2ncn3C)s1` [Example 81, [2-Methoxy-5-(morpholine-4-sulfonyl)-phenyl]-(6-methyl-6H-imidazo[4′,5′:3,4]benzo[2,1-d]thiazol-2-yl)-amine.HCl], the IC50 in assay [1] was 750 nM. Moreover, the Kd came out at 1200 nM in assay [2] and 5200 nM in assay [3].
Consider `CNS(=O)(=O)c1ccc(OC)c(Nc2nc3c(ccc4c3ncn4C)s2)c1` [Example 82, 4-Methoxy-N-methyl-3-(6-methyl-6H-imidazo[4′,5′:3,4]-benzo[2,1-d]thiazol-2-ylamino)-benzenesulfonamide.HCl], for which, in assay [1], it took 330 nM to reach half-maximal inhibition (IC50). Moreover, the dissociation constant (Kd) came to 1100 nM in assay [2] and 1500 nM in assay [3].
In assay [1], `COc1ccc(C#N)cc1Nc1nc2c(ccc3c2ccn3C)s1` [Example 85, 4-Methoxy-3-(6-methyl-6H-thiazolo[4,5-e]indol-2-ylamino)-benzonitrile.HCl] showed an IC50 of 150 nM. Moreover, the results for the Kd in assay [2] and in assay [3] were 150 nM and 580 nM, respectively.
In the case of `Cn1cnc2c3nc(Nc4ccc(C#N)cc4OC(F)(F)F)sc3ccc21` [Example 86, 4-(6-Methyl-6H-imidazo[4′,5′:3,4]benzo[2,1-d]thiazol-2-ylamino)-3-trifluoromethoxy-benzonitrile.HCl], in assay [1], the IC50 is 650 nM. The equilibrium dissociation constant (Kd) in assay [2] was 680 nM; in assay [3] it was above 95000 nM.
Consider `COc1ccc(NC(N)=O)cc1Nc1nc2c(ccc3c2ncn3C)s1` [Example 87, [4-Methoxy-3-(6-methyl-6H-imidazo[4′,5′:3,4]benzo[2,1-d]thiazol-2-ylamino)-phenyl]-urea.HCl], for which, in assay [1], the IC50 was 650 nM. Further, the Kd in assay [2] is 1600 nM; in assay [3], 6000 nM.
With `COc1ccc(F)cc1Nc1nc2c(ccc3c2cnn3C)s1` [Example 93, (5-Fluoro-2-methoxy-phenyl)-(6-methyl-6H-3-thia-1,6,7-triaza-as-indacen-2-yl)-amine.HCl], in assay [1], inhibition was half-maximal at 180 nM (IC50). The figures for the Kd in assay [2] and in assay [3] were 8100 nM and 19000 nM, respectively.
For `COc1ccccc1Nc1nc2c(ccc3c2cnn3C)s1` [Example 94, (2-Methoxy-phenyl)-(6-methyl-6H-3-thia-1,6,7-triaza-as-indacen-2-yl)-amine.TFA], the IC50 in assay [1] was determined as 510 nM. Moreover, the Kd in assay [2] was found to be 9200 nM; in assay [3], 15000 nM.
For `COc1ccc(C(N)=O)cc1Nc1nc2c(ccc3cnccc32)s1` [Example 96, 4-Methoxy-3-(thiazolo[4,5-f]isoquinolin-2-ylamino)-benzamide.TFA], in that order: 730 nM, 440 nM and 730 nM.
Turning to `COc1ccc(S(C)(=O)=O)cc1Nc1nc2c(ccc3cnccc32)s1` [Example 97, (5-Methanesulfonyl-2-methoxy-phenyl)-thiazolo[4,5-f]isoquinolin-2-yl-amine.TFA], the IC50 in assay [1] was determined as 180 nM. The results for the Kd in assay [2] and in assay [3] were 1000 nM and 4400 nM, respectively.
Regarding `NS(=O)(=O)c1ccc(OC(F)(F)F)c(Nc2nc3c(ccc4cnccc43)s2)c1` [Example 98, 3-(Thiazolo[4,5-f]isoquinolin-2-ylamino)-4-trifluoromethoxy-benzenesulfonamide.TFA], the IC50 in assay [1] is above 20000 nM. The Kd in assay [2] came out at 3000 nM; in assay [3], 7600 nM.
In turn, `COc1ccc(F)cc1Nc1nc2c(ccc3cnccc32)s1` [Example 99, (5-Fluoro-2-methoxy-phenyl)-thiazolo[4,5-f]isoquinolin-2-yl-amine.TFA] showed a concentration for half-maximal inhibition (IC50) in assay [1] of 870 nM. In addition, the Kd in assay [2] was 3200 nM; in assay [3] it was 20000 nM.
In turn, `Cn1ncc2c3nc(Nc4cc(S(N)(=O)=O)ccc4OC(F)(F)F)sc3ccc21` [Example 101, 3-(6-Methyl-6H-3-thia-1,6,7-triaza-as-indacen-2-ylamino)-4-trifluoromethoxy-benzenesulfonamide.TFA] came in with an IC50 in assay [1] of 760 nM. Besides, the Kd in assay [2] turned out to be 430 nM; in assay [3], 790 nM.
In the case of `CC(C)Oc1ccc(S(N)(=O)=O)cc1Nc1nc2c(ccc3c2cnn3C)s1` [Example 102, 4-Isopropoxy-3-(6-methyl-6H-3-thia-1,6,7-triaza-as-indacen-2-ylamino)-benzenesulfonamide.TFA], the IC50 in assay [1] was determined as 390 nM. The results for the Kd in assay [2] and in assay [3] were 680 nM and 250 nM, respectively.
Molecule `COc1ccc(S(N)(=O)=O)cc1Nc1nc2c(ccc3c2cnn3C)s1` [Example 103, 4-Methoxy-3-(6-methyl-6H-3-thia-1,6,7-triaza-as-indacen-2-ylamino)-benzenesulfonamide.TFA] displayed a half-inhibitory concentration (IC50) in assay [1] of 380 nM. For the same molecule, the Kd in assay [2] was 370 nM; in assay [3] it was 750 nM.

Source of the values: US20120129811A1, “TRICYCLIC INHIBITORS OF PRO-MATRIX METALLOPROTEINASE ACTIVATION” (priority 2010, published 2012).
